Values after ≈ are worked out from the molar mass of the structure shown.
Key:
[1] = system: HBV; assay: Anti-HBV activity in vitro, HepG2.2.15 cells, extracellular HBV DNA by qPCR; type: cell-based; conditions: Hepatitis B virus, HepG2.2.15, 120 h, HepG2.2.15 cells; HBV replication inhibited by 50%, extracellular HBV DNA by qPCR; five days after compound treatment; read-out: EC50
Procedure, shortened: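 HBV-producing HepG2.2.15 cells were seeded and left overnight at 37 °C, then treated with half-log serial compound dilutions at a final 0.5% DMSO. After 5 days, viral DNA was extracted from the supernatant and extracellular HBV DNA was quantified by qPCR.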

[2] = system: CYP3A4; assay: Cytochrome P450 induction screening assay, mRNA induction in human cryopreserved hepatocytes; type: in vitro ADME; conditions: CYP3A4 mRNA relative induction, 24 hours, test compound up to 10 μM
Description: Human cryopreserved hepatocytes (Life Technologies, Carlsbad, USA) were thawed and cultured in collagen I coated 96-well plates with a density of 52,000 cells/well. After attachment, medium was changed and cells were pre-cultured overnight in hepatocyte maintenance medium (HMM; Lonza, Switzerland).
Test compounds were dosed to the cells next morning at an indicated concentration (up to 10 μM) in HMM culture media containing gentamycin and a constant 0.1% DMSO. Similarly, dilutions of the positive inducer compounds omeprazole (prototypical inducer of human CYP1A2; final concentrations: 1 and 10 μM), phenobarbital (prototypical inducer of human CYP2B6; final concentrations: 100 and 1000 μM) and rifampicin (prototypical inducer of human CYP3A4; final concentrations: 1 and 10 μM) were prepared from 1000 fold DMSO stock solutions in HMM containing gentamycin. Medium change was then performed and cells were exposed for 24 hours to test compounds, positive inducer compounds, or vehicle (0.1% DMSO), respectively.
At the end of the compound exposure period, medium was removed and cells lysed using 100 μL/well MagNA Pure LC RNA isolation tissue lysis buffer (Roche Diagnostics AG, Rotkreuz, Switzerland). Plates were then sealed and frozen at −80° C. until further workup.
mRNA isolation was performed using the MagNA Pure 96 system (Roche Diagnostics AG, Rotkreuz, Switzerland) and the respective cellular RNA large volume kit (Roche Diagnostics AG, Rotkreuz, Switzerland) from thawed samples diluted 1:1 with PBS. The volume of the cell lysis and an elution volume of 100 μL were used. 20 μl of the resulting mRNA suspension was then used for reverse transcription using 20 μl of the transcript or first stand cDNA synthesis kit (Roche prime Supply, Mannheim, Germany). The resulting cDNA was diluted with 40 μl of H2O before using for qRT-PCR. qRT-PCR was performed by using the forward and the reverse primer, the corresponding UPL (all from Microsynth, Balgach, Switzerland) and the Taqman Fast advanced master mix (Applied Biosystems), on an ABI 7900 machine (Applied Biosystems).
qRT-PCR Ct-values for the respective P450s were put into relation to the Ct-value of RN18S1 (microsynth, Balgach, Switzerland) of the same sample. Doing so, a respective Δct-value was calculated. Using the average of all Δct-values for the vehicle control samples, a ΔΔct-value was calculated for each sample (ΔΔct-value(sample)=Δct-value(sample)−average of Δct-value of all vehicle controls). The fold induction of the respective sample was calculated as 2^(−ΔΔct). The individual fold induction values were then averaged per treatment condition (usually n=3 biological replicates).
Relative induction values to the respective positive inducer compound condition (10 μM omeprazole for CYP1A2; 1000 μM Phenobarbital for CYP2B6; 10 μM rifampicin for CYP3A4) were then calculated from the fold induction values as follows: Relative induction (%)=100×(T−V)/(P−V)

[3] = Human microsomal metabolic stability; type: in vitro ADME; conditions: human microsomes 0.5 mg/mL, 1 μM test compound, NADPH, 37° C., pH 7.4, 0-30 minutes
Procedure, shortened: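 1 μM compound with 0.5 mg/mL human liver microsomal protein in 100 mM phosphate pH 7.4 at 37° C, started with 1 mM NADPH or a NADPH-regenerating system. Sampled at 0–30 min, quenched in cold methanol with tolbutamide internal standard; remaining parent quantified by LC-MS/MS.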

[4] = Lysa solubility; type: physicochemical; conditions: phosphate buffer, pH 6.5, aqueous buffer, thermodynamic from solid, 0.05 M phosphate buffer (pH 6.5)
Procedure, shortened: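 Duplicate samples dried from 10 mM DMSO stocks, taken up in 0.05 M phosphate buffer pH 6.5, stirred 1 h, shaken 2 h and left overnight. Filtrate and 1/10 dilution quantified by direct UV or HPLC-UV, in μg/mL; above 80% of the calculated maximum, reported as greater than that value.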

[5] = Cytotoxicity in HepDE19 cells (CCK-8) and selectivity index; type: cell-based; conditions: human, HepDE19 cells; CCK-8 cell viability; five days after treatment
From the text: (§1) HepG2.2.15 and HepDE19 are stably-transfected cell lines containing the HBV genome. Both cell lines are derived from the hepatoblastoma cell line Hep G2 (American Type Culture Collection, ATCC® HB-8065™) by the published procedures described in references: MA Selles et al. Proc. Natl. Acad. Sci. USA 1987, 84, 1005-1009 and H Guo et al. Journal of Virology 2007, 81, 12472-12484, respectively. Both cell lines were maintained in Dulbecco's modified Eagle's medium (DMEM)-F12 medium supplemented with 10% fetal bovine serum, 100 U/mL penicillin, 100 μg/mL streptomycin, and 0.5 mg/mL of G418.
(§2) HepDE19 cells were seeded into 96-well plates (5×10^3 cells per well) and treated with compounds for EC50 determination. Five days after treatment, cell viability was measured by addition of 20 μL of CCK-8 reagent. Two hours after incubation at 37° C., the absorbance at wavelengths of 450 nm and 630 nm (OD450 and OD630) was recorded by a plate reader. The concentration results in the death of 50% of the host cells (CC50) of each compound were determined.
(§3) The relative effectiveness of the compound in inhibiting viral replication compared to inducing cell death was defined as the selectivity index (CC50 value/EC50 value). Based on CC50 and EC50 data, selectivity indexes were determined.

[6] = system: HepDE19 cells; assay: as above; type: cell-based; conditions: CC50 (HepDE19) value / EC50 (HepG2.2.15) value
From the text: as §1, §2, §3

Compound | EC50 [1] [nM] | % of Positive control (10 μM Rifampicin) [2] [%] | Human Microsomal Clearance [3] [mL/min/kg] | solubility thermodynamic [4] [µg/mL] | CC50 at 5 days [5] [nM] | Selectivity index (CC50/EC50) [6]
CCOC(=O)C1=C(CN2CCN3C(=O)N(c4cccc(C(=O)O)c4)C[C@@H]3C2)NC(c2nccs2)=N[C@H]1c1cccc(F)c1Cl [Example 27, (R)-6-[(S)-2-(3-Carboxy-phenyl)-3-oxo-hexahydro-imidazo[1,5-a]pyrazin-7-ylmethyl]-4-(2-chloro-3-fluoro-phenyl)-2-thiazol-2-yl-1,4-dihydro-pyrimidine-5-carboxylic acid ethyl ester] | 3 | 0.2 | – | – | – | –
COC(=O)C1=C(CN2CCN3C(=O)N(C4CC4)CC3(CC(=O)O)C2)NC(c2nccs2)=N[C@H]1c1ccc(F)cc1Cl (stereo partly drawn) [Example 30, 2-[7-[[(4R)-4-(2-chloro-4-fluoro-phenyl)-5-methoxycarbonyl-2-thiazol-2-yl-1,4-dihydropyrimidin-6-yl]methyl]-2-cyclopropyl-3-oxo-1,5,6,8-tetrahydroimidazo[1,5-a]pyrazin-8a-yl]acetic acid] | 95 | 7.3 | 1.7 | 610 (≈ 1010 µM) | – | –
COC(=O)C1=C(CN2CCN3C(=O)NC[C@@H]3C2)NC(c2nccs2)=N[C@H]1c1ccc(F)cc1Cl [Example 11, Methyl (4R)-6-[[(8aR)-3-oxo-1,2,5,6,8,8a-hexahydroimidazo[1,5-a]pyrazin-7-yl]methyl]-4-(2-chloro-4-fluoro-phenyl)-2-thiazol-2-yl-1,4-dihydropyrimidine-5-carboxylate] | 1 | 17 | – | – | 52000 | 30635
COC(=O)C1=C(CN2CCN3C(=O)N(CC(C)(C)C(=O)O)C[C@@H]3C2)NC(c2nccs2)=N[C@H]1c1ccc(F)c(F)c1C [Example 43, 3-[(8aS)-7-[[(4S)-4-(3,4-difluoro-2-methyl-phenyl)-5-methoxycarbonyl-2-thiazol-2-yl-1,4-dihydropyrimidin-6-yl]methyl]-3-oxo-5,6,8,8a-tetrahydro-1H-imidazo[1,5-a]pyrazin-2-yl]-2,2-dimethyl-propanoic acid] | 6 | 0.2 | 3.1 | – | – | –
CCOC(=O)C1=C(CN2CCN3C(=O)N(CC(C)(C)C(=O)O)C[C@@H]3C2)NC(c2nccs2)=N[C@H]1c1ccc(F)c(F)c1C [Example 22, 3-[(8aS)-7-[[(4S)-4-(3,4-difluoro-2-methyl-phenyl)-5-ethoxycarbonyl-2-thiazol-2-yl-1,4-dihydropyrimidin-6-yl]methyl]-3-oxo-5,6,8,8a-tetrahydro-1H-imidazo[1,5-a]pyrazin-2-yl]-2,2-dimethyl-propanoic acid] | 3 | 0 | – | – | > 100000 | >34482
COC(=O)C1=C(CN2CCN3C(=O)N(C4CC4)C[C@@H]3[C@H]2C(=O)O)NC(c2nccs2)=N[C@H]1c1ccc(F)cc1Cl (racemic) [Example 45, 7-[[(4R)-4-(2-chloro-4-fluoro-phenyl)-5-methoxycarbonyl-2-thiazol-2-yl-1,4-dihydropyrimidin-6-yl]methyl]-2-cyclopropyl-3-oxo-5,6,8,8a-tetrahydro-1H-imidazo[1,5-a]pyrazine-8-carboxylic acid] | 26 | 20 | – | > 690 | – | –
CCOC(=O)C1=C(CN2CCN3C(=O)CC[C@@H]3[C@H]2C(=O)O)NC(c2nccs2)=N[C@H]1c1cccc(F)c1Cl (racemic) [Example 99, 2-[[(4R)-4-(2-chloro-3-fluoro-phenyl)-5-ethoxycarbonyl-2-thiazol-2-yl-1,4-dihydropyrimidin-6-yl]methyl]-6-oxo-1,3,4,7,8,8a-hexahydropyrrolo[1,2-a]pyrazine-1-carboxylic acid] | 14 | – | 6.1 | > 710 | > 100000 | >7142
COC(=O)C1=C(CN2CCN3C(=O)N(c4ccc(C(=O)O)cc4)C[C@@H]3C2)NC(c2nccs2)=N[C@H]1c1ccc(F)cc1Cl [Example 25, (R)-6-[(S)-2-(4-Carboxy-phenyl)-3-oxo-hexahydro-imidazo[1,5-a]pyrazin-7-ylmethyl]-4-(2-chloro-4-fluoro-phenyl)-2-thiazol-2-yl-1,4-dihydro-pyrimidine-5-carboxylic acid methyl ester] | 2 | 0 | 0.4 | – | – | –
CCOC(=O)C1=C(CN2CCN3C(=O)N(CC4CC(C(=O)O)C4)C[C@@H]3C2)NC(c2nccs2)=N[C@H]1c1cccc(F)c1Cl (stereo partly drawn) [Example 81, 3-[[(8aS)-7-[[(4R)-4-(2-chloro-3-fluoro-phenyl)-5-ethoxycarbonyl-2-thiazol-2-yl-1,4-dihydropyrimidin-6-yl]methyl]-3-oxo-5,6,8,8a-tetrahydro-1H-imidazo[1,5-a]pyrazin-2-yl]methyl]cyclobutanecarboxylic acid] | 10 | – | 0.1 | 279 (≈ 442 µM) | 85000 | 8500
COC(=O)C1=C(CN2CCN3C(=O)N(CC(C)(C)C(=O)O)C[C@@H]3C2)NC(c2nccs2)=N[C@H]1c1cccc(F)c1Cl [Example 41, 3-[(8aS)-7-[[(4R)-4-(2-chloro-3-fluoro-phenyl)-5-methoxycarbonyl-2-thiazol-2-yl-1,4-dihydropyrimidin-6-yl]methyl]-3-oxo-5,6,8,8a-tetrahydro-1H-imidazo[1,5-a]pyrazin-2-yl]-2,2-dimethyl-propanoic acid] | 14 | – | 2.0 | > 804 | > 100000 | >7194
CCOC(=O)C1=C(CN2CCN3C(=O)OC[C@@H]3[C@H]2C(=O)O)NC(c2nccs2)=N[C@H]1c1cccc(F)c1Cl (single isomer, unassigned) [Example 102B] | 14 | – | 6.2 | > 665 | > 100000 | >7142

— patent US9233978B2, “6-fused heteroaryldihydropyrimidines for the treatment and prophylaxis of hepatitis B virus infection” (Hoffmann-La Roche Inc., priority 2014, dated 2016)
